Experimental data from PubChem BioAssay AID248 (DTP/NCI, 2004).
Where “and” joins values, the source holds several entries; their conditions need not be identical. Identical values can stand only once. Toxic doses and inconclusive results are not listed. No stated cut-off is given here; in the data, active means T/C of 150% or more; inactive means T/C below 125%.

System: L1210 leukemia ip in BDF1 mice, survival T/C
Assay: NCI In Vivo Anticancer Drug Screen. Data for tumor model L1210 Leukemia (intraperitoneal) in B6D2F1 (BDF1) mice
Settings: endpoint: mean survival time, higher = longer survival
Procedure, shortened: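 Each compound was tested against a transplantable tumor grown in mice. The endpoint was survival, with treated animals benchmarked against vehicle controls as a simple ratio.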

[1] = dose: 100.0 mg/kg/injection, schedule: Q01DX009 (ip), vehicle: Klucel (hydroxypropylcellulose) (HPC)
[2] = dose: 200.0 mg/kg/injection, schedule: Q01DX009 (ip), vehicle: Klucel (hydroxypropylcellulose) (HPC)
[3] = dose: 400.0 mg/kg/injection, schedule: Q01DX009 (ip), vehicle: Klucel (hydroxypropylcellulose) (HPC)
[4] = dose: 50.0 mg/kg/injection, schedule: Q01DX009 (ip), vehicle: acetone
[5] = dose: 100.0 mg/kg/injection, schedule: Q01DX009 (ip), vehicle: acetone
[6] = dose: 200.0 mg/kg/injection, schedule: Q01DX009 (ip), vehicle: acetone
[7] = dose: 75.0 mg/kg/injection, schedule: Q01DX001 (ip), vehicle: saline
[8] = dose: 100.0 mg/kg/injection, schedule: Q01DX001 (ip), vehicle: carboxymethylcellulose (CMC)
[9] = dose: 200.0 mg/kg/injection, schedule: Q01DX001 (ip), vehicle: carboxymethylcellulose (CMC)
[10] = dose: 400.0 mg/kg/injection, schedule: Q01DX001 (ip), vehicle: carboxymethylcellulose (CMC)
[11] = dose: 150.0 mg/kg/injection, schedule: Q01DX001 (ip), vehicle: saline
[12] = dose: 300.0 mg/kg/injection, schedule: Q01DX001 (ip), vehicle: saline
[13] = dose: 100.0 mg/kg/injection, schedule: Q01DX001 (ip), vehicle: saline
[14] = dose: 200.0 mg/kg/injection, schedule: Q01DX001 (ip), vehicle: saline
[15] = dose: 400.0 mg/kg/injection, schedule: Q01DX001 (ip), vehicle: saline

Measured: T/C

CC(C)(CBr)C(=O)N1CCN(C(=O)C(C)(C)CBr)CC1
inactive: dose: 6.2 mg/kg/injection, schedule: Q01DX Z (ip), vehicle: carboxymethylcellulose (CMC) 109 % of control | dose: 9.2 mg/kg/injection, schedule: Q01DX Z (ip), vehicle: methylcellulose (MC) 94 % of control | dose: 9.4 mg/kg/injection, schedule: Q01DX Z (ip), vehicle: carboxymethylcellulose (CMC) 118 % of control | dose: 14.0 mg/kg/injection, schedule: Q01DX Z (ip), vehicle: carboxymethylcellulose (CMC) 116 % of control | dose: 14.0 mg/kg/injection, schedule: Q01DX Z (ip), vehicle: methylcellulose (MC) 103 % of control | dose: 21.0 mg/kg/injection, schedule: Q01DX Z (ip), vehicle: carboxymethylcellulose (CMC) 121 % of control | dose: 21.0 mg/kg/injection, schedule: Q01DX Z (ip), vehicle: methylcellulose (MC) 103 % of control | dose: 42.0 mg/kg/injection, schedule: Q01DX Z (ip), vehicle: methylcellulose (MC) 111 % of control | dose: 50.0 mg/kg/injection, schedule: Q01DX Z (ip), vehicle: methylcellulose (MC) 121 % of control | dose: 68.0 mg/kg/injection, schedule: Q01DX Z (ip), vehicle: methylcellulose (MC) 98 % of control

COc1cc([N+](=O)[O-])ccc1NC(=O)Nc1ccccc1F
inactive: [1] 98 % of control | [2] 93 % of control | [3] 89 % of control

COc1cc(C(=O)c2cocc2C(=O)c2ccc3c(c2)OCO3)cc(OC)c1OC
inactive: [4] 110 % of control | [5] 94 % of control | [6] 112 % of control | dose: 400.0 mg/kg/injection, schedule: Q01DX009 (ip), vehicle: acetone 110 % of control

COc1c2ccccc2cc2ccccc12
inactive: [4] 94 % of control | [5] 92 % of control | [6] 89 % of control

CN=C(N)c1ccc(N=C(N)c2ccc(N=C(N)c3ccc(N)cc3)cc2)cc1
active: dose: 35.0 mg/kg/injection, schedule: Q01DX015 (ip), vehicle: saline 151 % of control
inactive: dose: 4.25 mg/kg/injection, schedule: Q01DX Z (ip), vehicle: water 112 % of control | dose: 8.5 mg/kg/injection, schedule: Q01DX Z (ip), vehicle: water 120 % of control | dose: 50.0 mg/kg/injection, schedule: Q01DX001 (ip), vehicle: saline 115 % of control | dose: 62.5 mg/kg/injection, schedule: Q01DX Z (oral), vehicle: water 101 % of control | dose: 125.0 mg/kg/injection, schedule: Q01DX Z (oral), vehicle: water 103 % of control | dose: 250.0 mg/kg/injection, schedule: Q01DX Z (oral), vehicle: water 102 % of control

CC1=CP(=O)(Oc2ccc([N+](=O)[O-])cc2)CC1 (stereo not given)
inactive: [7] 102 % of control

CN(C)CC(=O)N/N=C\c1ccc([N+](=O)[O-])s1
inactive: dose: 100.0 mg/kg/injection, schedule: Q04DX003 (ip), vehicle: saline 91 % of control | dose: 200.0 mg/kg/injection, schedule: Q04DX003 (ip), vehicle: saline 93 % of control

O=C(O)CC1(C(=O)O)CC2C=CC1C2 (stereo not given)
inactive: [8] 97 % of control and 105 % of control | dose: 100.0 mg/kg/injection, schedule: Q04DX002 (ip), vehicle: carboxymethylcellulose (CMC) 97 % of control and 98 % of control | dose: 100.0 mg/kg/injection, schedule: Q04DX003 (ip), vehicle: carboxymethylcellulose (CMC) 95 % of control and 97 % of control | [9] 97 % of control and 91 % of control | dose: 200.0 mg/kg/injection, schedule: Q04DX002 (ip), vehicle: carboxymethylcellulose (CMC) 97 % of control and 90 % of control | dose: 200.0 mg/kg/injection, schedule: Q04DX003 (ip), vehicle: carboxymethylcellulose (CMC) 97 % of control and 87 % of control | [10] 99 % of control and 103 % of control | dose: 400.0 mg/kg/injection, schedule: Q04DX002 (ip), vehicle: carboxymethylcellulose (CMC) 87 % of control and 90 % of control | dose: 400.0 mg/kg/injection, schedule: Q04DX003 (ip), vehicle: carboxymethylcellulose (CMC) 94 % of control and 90 % of control

CCOC(=O)C(NNc1ccccc1)C(c1ccccc1)[P+](c1ccccc1)(c1ccccc1)c1ccccc1 (stereo not given)
inactive: dose: 75.0 mg/kg/injection, schedule: Q01DX001 (ip), vehicle: carboxymethylcellulose (CMC) 101 % of control

NOCc1cnccn1
inactive: [7] 92 % of control | [11] 96 % of control | [12] 88 % of control

CCCCOCCOCCOc1ccc(Cl)cc1
inactive: dose: 100.0 mg/kg/injection, schedule: Q04DX002 (ip), vehicle: saline 100 % of control | dose: 200.0 mg/kg/injection, schedule: Q04DX002 (ip), vehicle: saline 113 % of control | dose: 400.0 mg/kg/injection, schedule: Q04DX002 (ip), vehicle: saline 100 % of control

c1ccc2c(c1)-c1ccccc1-2
inactive: dose: 50.0 mg/kg/injection, schedule: Q01DX001 (ip), vehicle: carboxymethylcellulose (CMC) 97 % of control | [8] 97 % of control | [9] 97 % of control | [10] 103 % of control

COc1ccc(C(=O)Nc2ccccc2)cc1[N+](=O)[O-]
inactive: [1] 96 % of control | dose: 100.0 mg/kg/injection, schedule: Q01DX009 (ip), vehicle: saline with Tween-80 101 % of control | dose: 100.0 mg/kg/injection, schedule: Q04DX003 (ip), vehicle: saline with Tween-80 101 % of control | [2] 98 % of control | dose: 200.0 mg/kg/injection, schedule: Q01DX009 (ip), vehicle: saline with Tween-80 94 % of control | dose: 200.0 mg/kg/injection, schedule: Q04DX003 (ip), vehicle: saline with Tween-80 97 % of control | [3] 98 % of control | dose: 400.0 mg/kg/injection, schedule: Q01DX009 (ip), vehicle: saline with Tween-80 86 % of control | dose: 400.0 mg/kg/injection, schedule: Q04DX003 (ip), vehicle: saline with Tween-80 101 % of control

O=C(OCCO)c1cc(OCCO)nc(Cl)n1
inactive: dose: 50.0 mg/kg/injection, schedule: Q01DX009 (ip), vehicle: Klucel (hydroxypropylcellulose) (HPC) 100 % of control | [1] 100 % of control | [2] 89 % of control

O=C(CC(=O)Nc1ccccc1)Cc1ccccc1
inactive: [13] 102 % of control | dose: 100.0 mg/kg/injection, schedule: Q01DX009 (ip), vehicle: saline 93 % of control | [14] 88 % of control | dose: 200.0 mg/kg/injection, schedule: Q01DX009 (ip), vehicle: saline 90 % of control | [15] 93 % of control | dose: 400.0 mg/kg/injection, schedule: Q01DX009 (ip), vehicle: saline 93 % of control

CCCCCCCCC1CCCC2C(C)CCC(C)C12 (stereo not given)
inactive: [7] 96 % of control | [11] 95 % of control | [12] 104 % of control

ClCCN(CCCCCCN(CCCl)Cc1ccccc1)Cc1ccccc1
inactive: dose: 2.5 mg/kg/injection, schedule: Q04DX002 (ip), vehicle: Klucel (hydroxypropylcellulose) (HPC) 104 % of control | dose: 5.0 mg/kg/injection, schedule: Q04DX002 (ip), vehicle: Klucel (hydroxypropylcellulose) (HPC) 100 % of control

Cc1ccc(C2NC(=O)N3C(c4ccc(C)cc4)NC(=O)N23)cc1 (stereo not given)
inactive: dose: 100.0 mg/kg/injection, schedule: Q01DX009 (ip), vehicle: gum acacia 99 % of control | dose: 100.0 mg/kg/injection, schedule: Q04DX003 (ip), vehicle: gum acacia 99 % of control | dose: 200.0 mg/kg/injection, schedule: Q01DX009 (ip), vehicle: gum acacia 102 % of control | dose: 200.0 mg/kg/injection, schedule: Q04DX003 (ip), vehicle: gum acacia 87 % of control | dose: 400.0 mg/kg/injection, schedule: Q01DX009 (ip), vehicle: gum acacia 96 % of control | dose: 400.0 mg/kg/injection, schedule: Q04DX003 (ip), vehicle: gum acacia 92 % of control

CCCCCCCCCCCCCCc1sc(N)nc1-c1ccccc1
inactive: [13] 98 % of control | [14] 98 % of control | [15] 95 % of control

CC1(C)N=C(N)N=C(N)N1c1ccc(CCC(=O)CCl)cc1
inactive: dose: 25.0 mg/kg/injection, schedule: Q01DX001 (ip), vehicle: saline with Tween-80 92 % of control | dose: 50.0 mg/kg/injection, schedule: Q01DX001 (ip), vehicle: saline with Tween-80 95 % of control | dose: 100.0 mg/kg/injection, schedule: Q01DX001 (ip), vehicle: saline with Tween-80 95 % of control
